We go through 30 compounds from patent US8895585B2, “Nicotinamide derivative or salt thereof” (FUJIFILM Corporation, priority 2010, dated 2014).

Read-outs that look alike come from different tables or passages of the source.

The target of assay [1] is T1, glutathione S-transferase (GST)-fused full-length human Syk protein (Homo sapiens, UniProt P43405).
T1 construct: (GST)-fused full-length human Syk protein; GST (glutathione S-transferase); purchased Carna Biosciences
Briefly: Syk enzyme assay. It counts as biochemical. Particulars: Syk enzyme assay, Test Example 1; read-out: IC50 of Syk-inhibitory activity. An outline of the steps:
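Baculovirus-expressed enzyme (1.2 ng) was preincubated with compound in HEPES pH 7.0/MgCl2/DTT buffer, 2 min shaking then 13 min at room temperature. Biotin-EDPDYEWPSA-NH2 (0.4 μM final) and ATP (27 μM final) were added for 40 min at room temperature. EDTA stop, streptavidin-XL/PT66-K TR-FRET at 615/665 nm gave IC50.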

For a further assay, the system named is THP-1 cells. Briefly: TNFα generation assay. Particulars: Table 22, read-out: IC50 in TNFα generation assay. It counts as cell-based, human. An outline of the steps: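 Secreted TNFα in supernatant quantified by ELISA or AlphaLISA after 7 h culture on human IgG-coated wells (10 μg/ml coating). Cells were IFN-γ-differentiated THP-1 (10 ng/ml, 2 days), exposed to compound for 30 min at room temperature before plating.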

Where [2] appears, read: Homo sapiens, THP-1, THP-1 cells.

Consider `CCNc1cc(Nc2nc(NC3CCCCC3N)c(F)cc2C(N)=O)ccn1` (stereo not drawn) [Example 002-059], for which the IC50 in assay [1] is 10 to 50 nM; in the assay on THP-1 cells (setting [2]), 130 to 200 nM.
For `CCOc1nn(CC)c2ccc(Nc3nc(N[C@H](CC4CC4)[C@H](C)N)c(F)cc3C(N)=O)cc12` [Example 006-591, 6-(((2R,3S)-3-amino-1-cyclopropylbutan-2-yl)amino)-2-((3-ethoxy-1-ethyl-1H-indazol-5-yl)amino)-5-fluoronicotinamide], the IC50 in assay [1] is below 10 nM; in the assay with THP-1 cells (setting [2]), 130 to 200 nM.
On the same counts, the results for `Cn1nc(C2CC2)c2cc(Nc3nc(N[C@@H]4CCCC[C@@H]4N)c(F)cc3C(N)=O)ccc21` [Example 006-544, 6-(((1R,2S)-2-aminocyclohexyl)amino)-2-((3-cyclopropyl-1-methyl-1H-indazol-5-yl)amino)-5-fluoronicotinamide] are below 10 nM and 65 to 130 nM.
On the same counts, the results for `CCCC[C@H](CN)Nc1nc(Nc2ccc3c(cnn3CCOC)c2)c(C(N)=O)cc1F` [Example 006-338, (R)-6-((1-aminohexan-2-yl)amino)-5-fluoro-2-((1-(2-methoxyethyl)-1H-indazol-5-yl)amino)nicotinamide] are 10 to 50 nM and 65 to 130 nM.
Consider `CCn1nc(C(C)C)c2cc(Nc3nc(N[C@H](CC4CC4)[C@H](C)N)c(F)cc3C(N)=O)ccc21` [Example 006-465, 6-(((2R,3S)-3-amino-1-cyclopropylbutan-2-yl)amino)-2-((1-ethyl-3-isopropyl-1H-indazol-5-yl)amino)-5-fluoronicotinamide], for which the IC50 in assay [1] is below 10 nM; in the assay on THP-1 cells (setting [2]) it was 130 to 200 nM.
On to `NC(=O)c1cc(F)c(NC[C@@H](N)c2ccsc2)nc1Nc1ccc2ncccc2c1` [Example 014-019, (S)-6-((2-amino-2-(thiophene-3-yl)ethyl)-amino)-5-fluoro-2-((quinolin-6-yl)amino)-nicotinamide], for which the IC50 in assay [1] was below 10 nM; in the assay with THP-1 cells (setting [2]) it was 65 to 130 nM.
In the case of `Cc1cnc2cc(Nc3nc(N[C@H](C)[C@H](C)N)c(F)cc3C(N)=O)ccc2n1` (racemic) [Example 006-196, 6-(((2R,3S)-3-aminobutan-2-yl)amino)-5-fluoro-2-((2-methylquinoxalin-6-yl)amino)nicotinamide 6-(((2S,3R)-3-aminobutan-2-yl)amino)-5-fluoro-2-((2-methylquinoxalin-6-yl)amino)nicotinamide], the IC50 lay within 10 to 50 nM in assay [1] and 65 to 130 nM in the assay on THP-1 cells (setting [2]).
On the same counts, the results for `CCc1nn(CCF)c2ccc(Nc3nc(N[C@@H]4CCCC[C@@H]4N)c(F)cc3C(N)=O)cc12` [Example 006-454, 6-(((1R,2S)-2-aminocyclohexyl)amino)-2-((3-ethyl-1-(2-fluoroethyl)-1H-indazol-5-yl)amino)-5-fluoronicotinamide] are below 10 nM and 65 to 130 nM.
On the same counts, the results for `NC(=O)c1cc(F)c(NCC(N)c2ccccc2)nc1Nc1ccc2ncccc2c1` (stereo not drawn) [Example 014-005] are below 10 nM and below 65 nM.
The corresponding values for `NC(=O)c1cc(F)c(NC2CCCCC2N)nc1Nc1ccnc(-c2ccccc2F)c1` (stereo not drawn) [Example 002-131] are below 10 nM and 65 to 130 nM.
For the compound `CCn1nc(C)c2cc(Nc3nc(NC4CCCCC4N)c(F)cc3C(N)=O)ccc21` (stereo not drawn) [Example 002-207], the IC50 is below 10 nM in assay [1] and 65 to 130 nM with THP-1 cells (setting [2]).
`CC[C@@H](Nc1nc(Nc2cncc(-c3cccc(OC)c3)c2)c(C(N)=O)cc1F)[C@H](C)N` [Example 006-276, 6-(((2S,3R)-2-aminopentan-3-yl)amino)-5-fluoro-2-((5-(3-methoxyphenyl)pyridin-3-yl)amino)nicotinamide]: the IC50 was below 10 nM in assay [1] and below 65 nM with THP-1 cells (setting [2]).
On the same counts, the results for `COc1ccc(-c2cncc(Nc3nc(N[C@@H]4CCCC[C@@H]4N)c(F)cc3C(N)=O)c2)c(F)c1` (relative stereo) [Example 004-198, 6-(cis-2-aminocyclohexylamino)-5-fluoro-2-((5-(2-fluoro-4-methoxyphenyl)pyridin-3-yl)amino)nicotinamide] are below 10 nM and 65 to 130 nM.
On the same counts, the results for `C[C@H](N)[C@@H](CC1CC1)Nc1nc(Nc2cncc(-c3ccccc3)c2)c(C(N)=O)cc1F` [Example 006-351, 6-(((2R,3S)-3-amino-1-cyclopropylbutan-2-yl)amino)-5-fluoro-2-((5-phenylpyridin-3-yl)amino)nicotinamide] are below 10 nM and 65 to 130 nM.
On the same counts, the results for `CCC[C@@H](Nc1nc(Nc2ccnc(-c3ccco3)c2)c(C(N)=O)cc1F)[C@H](C)N` [Example 006-220, 6-(((2S,3R)-2-aminohexan-3-yl)amino)-5-fluoro-2-((2-(furan-2-yl)pyridin-4-yl)amino)nicotinamide] are below 10 nM and below 65 nM.
Take `CC[C@@H](Nc1nc(Nc2ccc(N3CCOCC3)nc2)c(C(N)=O)cc1F)[C@H](C)N` [Example 006-265, 6-(((2S,3R)-2-aminopentan-3-yl)amino)-5-fluoro-2-((6-morpholinopyridin-3-yl)amino)nicotinamide]: the IC50 was 10 to 50 nM in assay [1] and 130 to 200 nM in the assay on THP-1 cells (setting [2]).
The corresponding values for `NC(=O)c1cc(F)c(NC2CCCCC2N)nc1Nc1ccc2c(cnn2CCF)c1` (stereo not drawn) [Example 002-200] are below 10 nM and below 65 nM.
On the same counts, the results for `CCS(=O)(=O)Nc1cccc2cc(Nc3nc(N[C@@H]4CCCC[C@@H]4N)c(F)cc3C(N)=O)cnc12` (relative stereo) [Example 41-12, 6-(cis-2-aminocyclohexylamino)-2-((8-(ethylsulphonamide)quinolin-3-yl)amino)-5-fluoronicotinamide] are below 10 nM and 130 to 200 nM.
The corresponding values for `CC(C)C[C@H](CN)Nc1nc(Nc2cncc(Cl)c2)c(C(N)=O)cc1F` [Example 006-180, (R)-6-((1-amino-4-methylpentan-2-yl)amino)-2-((5-chloropyridin-3-yl)amino)-5-fluoronicotinamide] are below 10 nM and 130 to 200 nM.
Regarding `CCn1nc(F)c2cc(Nc3nc(NC4CCCCC4N)c(F)cc3C(N)=O)ccc21` (stereo not drawn) [Example 002-197], the IC50 in assay [1] was below 10 nM; in the assay with THP-1 cells (setting [2]), 130 to 200 nM.
The corresponding values for `C[C@H](N)[C@@H](C)Nc1nc(Nc2ccc3ncccc3c2)c(C(N)=O)cc1F` (racemic) [Example 39-1, 6-(((2R,3S)-3-aminobutan-2-yl)amino)-5-fluoro-2-((quinolin-6-yl)amino)nicotinamide 6-(((2S,3R)-3-aminobutan-2-yl)amino)-5-fluoro-2-((quinolin-6-yl)amino)nicotinamide] are below 10 nM and below 65 nM.
In the case of `CC[C@@H](Nc1nc(Nc2cncc(-c3ccc(OC)cc3F)c2)c(C(N)=O)cc1F)[C@H](C)N` [Example 006-279, 6-(((2S,3R)-2-aminopentan-3-yl)amino)-5-fluoro-2-((5-(2-fluoro-4-methoxyphenyl)pyridin-3-yl)amino)nicotinamide], the IC50 is below 10 nM in assay [1] and 65 to 130 nM in the assay on THP-1 cells (setting [2]).
For `C[C@H](N)CNc1nc(Nc2cccc(-n3nccn3)c2)c(C(N)=O)cc1F` [Example 006-097, (S)-2-((3-(2H-1,2,3-triazol-2-yl)phenyl)amino)-6-((2-aminopropyl)amino)-5-fluoronicotinamide], the results for the IC50 (in assay [1]; in the assay on THP-1 cells (setting [2])) were below 10 nM and below 65 nM, respectively.
The corresponding values for `COc1ccc(-c2cncc(Nc3nc(N[C@@H]4CCCC[C@@H]4N)c(F)cc3C(N)=O)c2)c(OC)c1` (relative stereo) [Example 004-190, 6-(cis-2-aminocyclohexylamino)-2-((5-(2,4-dimethoxyphenyl)pyridin-3-yl)amino)-5-fluoronicotinamide] are below 10 nM and 130 to 200 nM.
On the same counts, the results for `CC[C@H](N)[C@@H](CC)Nc1nc(Nc2ccc3ncccc3c2)c(C(N)=O)cc1F` [Example 006-199, 6-(((3R,4S)-4-aminohexan-3-yl)amino)-5-fluoro-2-((quinolin-6-yl)amino)nicotinamide] are below 10 nM and 65 to 130 nM.
The corresponding values for `CC(C)C[C@@H](Nc1nc(Nc2ccc3c(c2)c(F)nn3C)c(C(N)=O)cc1F)[C@H](C)N` [Example 006-511, 6-(((2S,3R)-2-amino-5-methylhexan-3-yl)amino)-5-fluoro-2-((3-fluoro-1-methyl-1H-indazol-5-yl)amino)nicotinamide] are below 10 nM and below 65 nM.
For “6-(((2R,3S)-3-aminobutan-2-yl)amino)-2- ((5,6-dimethylpyridin-3-yl)amino)-5- fluoronicotinamide 6-(((2S,3R)-3-aminobutan-2-yl)amino)-2- (5,6-dimethylpyridin-3-yl)amino)-5- fluoronicotinamide [Example 006-194]”, the IC50 in assay [1] was in the range of 10 to 50 nM; in the assay on THP-1 cells (THP-1 cells) it was 65 to 130 nM.
Take `CC[C@H](N)[C@@H](CC)Nc1nc(Nc2cnc(C)c(-n3nccn3)c2)c(C(N)=O)cc1F` [Example 006-380, 6-(((3R,4S)-4-aminohexan-3-yl)amino)-5-fluoro-2-((6-methyl-5-(2H-1,2,3-triazol-2-yl)pyridin-3-yl)amino)nicotinamide]: the results for the IC50 (in assay [1]; with THP-1 cells (setting [2])) were 10 to 50 nM and 65 to 130 nM, respectively.
The corresponding values for `CCN(CC)CCn1ccc2c(Nc3nc(N[C@@H]4CCCC[C@@H]4N)c(F)cc3C(N)=O)ccnc21` [Example 004-028] are below 10 nM and 65 to 130 nM.
The corresponding values for `NC(=O)c1cc(F)c(N[C@@H]2CCCC[C@@H]2N)nc1Nc1cncc(N2CCOCC2)c1` (relative stereo) [Example 004-051] are below 10 nM and 130 to 200 nM.
